Measurements published in US8314127B2, “Piperidine derivatives” (Astrazeneca AB, priority 2005, dated 2012).

What was measured:
[1] = molecular target: T1, CCR3 (Homo sapiens, UniProt P51677); test: Eotaxin-2-induced shape change in eosinophils in human blood in vitro; assay type: cell-based; set-up: Human blood, collected by venous puncture into 9 mL lithium-heparin tubes; endogenous in cells; host or cells: eosinophils in human whole blood; conditions: eotaxin-2 E/[A] curve displacement, 4 min at 37° C., flow cytometry forward scatter, read-out: CCR3 pA2 (converted)
T1 sequence (P51677 1-355): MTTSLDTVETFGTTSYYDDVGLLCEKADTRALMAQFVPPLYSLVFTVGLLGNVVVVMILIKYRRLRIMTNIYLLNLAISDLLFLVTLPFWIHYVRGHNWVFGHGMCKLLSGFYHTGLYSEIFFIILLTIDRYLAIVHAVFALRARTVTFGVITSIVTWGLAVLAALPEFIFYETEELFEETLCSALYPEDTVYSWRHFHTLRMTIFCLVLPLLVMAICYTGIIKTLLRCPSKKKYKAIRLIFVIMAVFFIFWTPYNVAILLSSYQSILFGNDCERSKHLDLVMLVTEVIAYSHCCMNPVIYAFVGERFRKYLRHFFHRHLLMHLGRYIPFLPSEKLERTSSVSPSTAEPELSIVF

[2] = molecular target: T1, CCR3; test: Compound affinity at human recombinant CCR3 receptors, radioligand competition on CHO-K1 cell membranes; assay type: binding; set-up: expressed in transfected cells; host or cells: CHO-K1; conditions: 2 nM [3H]-4-(2,4-dichloro-3-methylphenoxy)-1'-[4-(methylsulfonyl)benzoyl]-1,4'-bipiperidine, 2 h at 37° C., mean of minimum 2 experiments; for Ki: read-out: CCR3 pKi (converted)
[3] = molecular target: T2, human H1 receptor (Homo sapiens, UniProt P35367); test: Histamine H1 receptor binding, competition displacement of [3H]-pyrilamine; conditions: 1 nM [3H]-pyrilamine, membranes from recombinant CHO-K1 cells, 1 hour at room temperature; read-out: H1 pKi (converted)
T2 construct: purchased Euroscreen SA, Brussels, Belgium ES-390-M; host or cells: CHO-K1
T2 sequence (P35367 whole entry): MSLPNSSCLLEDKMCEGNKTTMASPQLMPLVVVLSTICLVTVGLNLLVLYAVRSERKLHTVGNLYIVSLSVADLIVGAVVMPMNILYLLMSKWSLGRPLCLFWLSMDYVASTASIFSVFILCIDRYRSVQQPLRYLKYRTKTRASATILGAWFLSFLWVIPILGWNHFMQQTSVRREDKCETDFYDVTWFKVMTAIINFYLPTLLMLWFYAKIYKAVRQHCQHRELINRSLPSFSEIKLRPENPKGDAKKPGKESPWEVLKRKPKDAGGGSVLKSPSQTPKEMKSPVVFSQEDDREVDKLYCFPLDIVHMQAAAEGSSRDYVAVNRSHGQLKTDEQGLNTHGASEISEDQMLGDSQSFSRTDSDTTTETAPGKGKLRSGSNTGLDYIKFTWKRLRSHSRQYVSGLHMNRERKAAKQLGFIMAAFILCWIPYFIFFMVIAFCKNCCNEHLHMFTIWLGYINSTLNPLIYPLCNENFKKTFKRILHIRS

| CCR3 pKi [2] | Structure (SMILES) | Kb [1] [µM] | Ki [2] [µM] | Ki [3] [µM] |
| --- | --- | --- | --- | --- |
| – | CCc1c(OC2CCN(CC3CCN([C@@H](Cc4ccccc4)C(=O)O)CC3)CC2)ccc(Cl)c1Cl [Example 13, (2S)-2-[4-[[4-(3,4-dichloro-2-ethyl-phenoxy)-1-piperidyl]methyl]-1-piperidyl]-3-phenylpropanoic acid] | 0.2 | 0.00126 | 0.1 |
| – | COc1ccccc1C[C@@H](C(=O)O)N1CCC(CN2CCC(Oc3ccc(Cl)c(Cl)c3C)CC2)CC1 [Example 2, (2S)-2-[4-[[4-(3,4-dichloro-2-methyl-phenoxy)-1-piperidyl]methyl]-1-piperidyl]-3-(2-methoxyphenyl)-propanoic acid] | 0.02 | 0.000631 | – |
| – | Cc1c(OC2CCN(CC3CCN([C@@H](Cc4ccc(C#N)cc4)C(=O)O)CC3)CC2)ccc(Cl)c1Cl [Example 3, (2S)-3-(4-cyanophenyl)-2-[4-[[4-(3,4-dichloro-2-methyl-phenoxy)-1-piperidyl]methyl]-1-piperidyl]-propanoic acid] | 0.02 | 0.000501 | 0.0316 |
| 8.2 | Cc1c(OC2CCN(CC3CCN([C@@H](Cc4ccccc4)C(=O)O)CC3)CC2)ccc(C#N)c1Cl [Example 15, (22S)-2-(4-{[4-(3-chloro-4-cyano-2-methylphenoxy)-piperidin-1-yl]methyl}piperidin-1-yl)-3-phenylpropanoic acid] | – | – | – |
| – | CCc1c(OC2CCN(CC3CCN([C@@H](Cc4ccc(F)cc4)C(=O)O)CC3)CC2)ccc(Cl)c1Cl [Example 14, (2S)-2-[4-[[4-(3,4-dichloro-2-ethyl-phenoxy)-1-piperidyl]methyl]-1-piperidyl]-3-(4-fluorophenyl)-propanoic acid] | 0.2 | 0.000501 | – |
